Experimental data taken from ChEMBL document CHEMBL1136214, “Indole-based heterocyclic inhibitors of p38alpha MAP kinase: designing a conformationally restricted analogue” (Bioorg Med Chem Lett, 2003).

Biological target: Mitogen-activated protein kinase 14 (Homo sapiens, UniProt Q16539)
Assay: Inhibition of Mitogen-activated protein kinase p38 alpha

Sequence of Mitogen-activated protein kinase 14 (Q16539 whole entry): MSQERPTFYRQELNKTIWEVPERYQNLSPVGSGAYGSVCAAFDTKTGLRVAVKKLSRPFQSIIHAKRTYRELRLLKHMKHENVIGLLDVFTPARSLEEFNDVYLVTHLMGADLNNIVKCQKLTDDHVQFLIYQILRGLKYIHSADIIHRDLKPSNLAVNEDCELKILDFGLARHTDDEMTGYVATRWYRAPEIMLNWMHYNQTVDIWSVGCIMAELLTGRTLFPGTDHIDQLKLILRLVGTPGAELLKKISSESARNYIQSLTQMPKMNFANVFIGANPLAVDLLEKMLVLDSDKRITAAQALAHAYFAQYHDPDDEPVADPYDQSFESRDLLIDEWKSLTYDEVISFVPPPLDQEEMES

**Q.** `O=C(c1cccc2cc[nH]c12)N1CCN(Cc2ccccc2)CC1` was tested. Which IC50 did it give?
**A.** > 30000 nM

**Q.** For `COc1cc2[nH]ccc2cc1C(=O)N1C[C@H](C)N(Cc2ccccc2)C[C@H]1C`, which IC50 is on record?
**A.** 20 nM

**Q.** With `C[C@@H]1CN(Cc2ccccc2)[C@@H](C)CN1C(=O)c1ccc2[nH]ccc2c1` as the molecule, how does the IC50 read?
**A.** 1300 nM

**Q.** For `COc1cc2[nH]ccc2cc1C(=O)N1C[C@@H](C)N(Cc2ccccc2)C[C@@H]1C`, which IC50 is on record?
**A.** 1650 nM

**Q.** How did the IC50 turn out when `COc1cc2[nH]ccc2cc1C(=O)N1CCN(Cc2ccccc2)CC1` was run?
**A.** 950 nM

**Q.** For `COc1cc2[nH]ccc2cc1C(=O)N1C[C@H](C)N(Cc2ccccc2)C[C@H]1C` (racemic), which IC50 is on record?
**A.** 70 nM
